From patent publication US10294212B2 (CURADEV PHARMA PRIVATE LTD., priority 2013, dated 2019)

Key:
[1] = target: Human TDO (hTDO)-transfected CHO-K1 cells (Homo sapiens (Human), UniProt P48775); assay: CHO-K1 cell based TDO assay; settings: hTDO cellular assay
Method: Human TDO (hTDO)-transfected CHO-K1 cells were used to identify test compounds that inhibit TDO activity and reduce Kynurenine production. CHO-K1 cells (ATCC) were cultured in DMEM supplemented with sodium bicarbonate (2.1 g/L), HEPES (4.1 g/L), L-glutamine (2 mM), non-essential amino acid (84 mg/L) and fetal bovine serum (10%) and maintained at 95% humidity and 5% CO2 in a 37° C. incubator. The TDO gene (TDO2) (Accession number NM_005651.1) was purchased from Origene (USA) and stably expressed in CHO-Kl cells using the expression vector pcDNA4/Myc-HisB Hygro (Life Technologies, USA). TDO-expressing clones were identified based on the kynurenine production by the cells. Expanded clones were used for assay as described below. Unless otherwise stated, all materials were procured from Sigma.
hTDO transfected CHO-K1 cells (0.05 million/well) were seeded in a 96-well plate and maintained overnight in DMEM containing 10% FBS (200 μL) at 95% humidity and 5% CO2 in a 37° C. incubator. The following day, cells were washed and incubated with test compounds (typically 31 μM to 10 nM, final volume 150 μL) in Hanks Balanced Salt Solution (HBSS) containing 80 μM L-tryptophan for 2 hours. Supernatant (150 μL) from the cells was treated with 30% TCA ([…]) to precipitate proteins. Supernatants were further incubated at 65° C. for 15 min to convert N-formylkynurenine to kynurenine. KYN in the supernatant was measured by LC/MS/MS using an API4000 mass spectrometer (Applied Biosystems) coupled to a Shimadzu Prominence LC system fitted with a C18 column.
Percent inhibition of the test compounds was determined by measuring the decrease in KYN as compared to the reaction control (DMSO vehicle). IC50 values were calculated using Graph Pad Prism® 5 as described above.

[2] = target: Human indoleamine 2,3-dioxygenase1 (hIDO1) (Homo sapiens (Human), UniProt P14902); assay: In-vitro IDO1 enzyme assay (conversion of L-tryptophan to KYN); format: biochemical; settings: read-out: IC50 (IDO1) Enz
Text: Human indoleamine 2,3-dioxygenasel (hIDO1) catalyzes the oxidative cleavage of the pyrrole ring of the indole nucleus of tryptophan to yield N-formylkynurenine which can be converted to kynurenine (KYN) by deformylation. hIDO1 with an N-terminal His tag, expressed and purified from E. coli cells was procured from either Enzo LifeScienccs, NY, USA). Unless otherwise stated, all materials were procured from Sigma Aldrich, Mo., USA.
The assay monitoring the conversion of L-tryptophan to KYN was carried out as follows. hIDO1 (10 nM) was incubated with tryptophan (30 μM) in the presence of ascorbic acid (20 mM), methylene blue (10 μM) and catalase (100 μg/mL) in potassium phosphate buffer (50 mM; pH 6.5) at 37C for 30 min. The reaction was terminated with 30% trichloroacetic acid (TCA) and further incubated at 65C for 15 min to fully convert N-formylkynurenine to KYN. The reaction mixture was then centrifuged to remove sediments and the KYN in the supernatant was estimated by UV-visible absorption spectroscopy at 360 nm using a Waters HPLC system fitted with a C-18 column or by LC/MS/MS. See, Sono, 1980, J. Biol. Chem., 255:1339-1345, which is herein incorporated by reference.
(§1) Percent inhibition at each concentration of test compounds was determined by estimating the decrease in KYN with reference to the reaction control with 1% DMSO vehicle. Data were analyzed using nonlinear regression to generate IC50 values using Graph Pad Prism® 5.

IDO1 in HeLa cells = IDO1 in HeLa cells (Homo sapiens (Human), UniProt P14902); assay: HeLa cell based IDO1 assay (IFNγ-induced, KYN in supernatant)
Method: HeLa cells were obtained from ATCC and maintained in DMEM supplemented with sodium bicarbonate (2.1 g/L), HEPES (4.1 g/L), L-glutamine (2 mM), non-essential amino acid (84 mg/L) and fetal bovine serum (10% FBS) and maintained at 95% humidity and 5% CO2 in a 37° C. incubator. Unless otherwise stated, all materials were procured from Sigma. Upon incubation with gamma-interferon (IFNγ ), HeLa cells express IDO1, which catalyzes the formation of N-formyl kynurenine from tryptophan present in growth medium. The assay was performed as follows:
Cells were plated in medium (300 μL) at a density of 0.1 million per well of a 48 well plate and hIDO1 was induced by overnight treatment with IFNγ (50 ng/mL) (Peprotech, USA). The following day, cells were washed to remove IFNγ and were incubated with specific concentrations of test compounds (typically 10 μM to 1 nM, final volume 300 μL) in Hanks Balanced Salt Solution (HBSS) containing 80 μM L-tryptophan. Following incubation, supernatant (150 μL) was transferred to a 96 well plate into which 30%TCA (304) was added and the contents further incubated at 65° C. for 15 min to fully convert N-formylkynurenine to kynurenine. The reaction mixture was then centrifuged to remove sediments and the KYN in the supernatant was estimated by UV-visible absorption spectroscopy at 360 nm using a Waters HPLC system fitted with a C-18 column. (Xiangdong Liu et al. Blood 2010, Vol-117, 3520-30; Sono described above).
as §1

IDO1 in HeLa cells, sequence (P14902 whole entry): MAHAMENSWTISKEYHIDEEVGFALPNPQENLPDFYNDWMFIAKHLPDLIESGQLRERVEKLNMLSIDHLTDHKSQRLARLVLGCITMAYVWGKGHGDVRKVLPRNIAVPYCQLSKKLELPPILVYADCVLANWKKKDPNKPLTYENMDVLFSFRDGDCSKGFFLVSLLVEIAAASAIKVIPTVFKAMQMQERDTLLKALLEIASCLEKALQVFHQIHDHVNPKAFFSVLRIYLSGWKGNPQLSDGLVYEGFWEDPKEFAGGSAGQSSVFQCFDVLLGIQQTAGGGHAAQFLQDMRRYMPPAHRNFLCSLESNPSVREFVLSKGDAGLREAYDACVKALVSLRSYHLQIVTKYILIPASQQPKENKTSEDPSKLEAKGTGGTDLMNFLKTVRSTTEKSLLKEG
Human indoleamine 2,3-dioxygenase1 (hIDO1), sequence (P14902 whole entry): as above
Human TDO (hTDO)-transfected CHO-K1 cells, sequence (P48775 whole entry): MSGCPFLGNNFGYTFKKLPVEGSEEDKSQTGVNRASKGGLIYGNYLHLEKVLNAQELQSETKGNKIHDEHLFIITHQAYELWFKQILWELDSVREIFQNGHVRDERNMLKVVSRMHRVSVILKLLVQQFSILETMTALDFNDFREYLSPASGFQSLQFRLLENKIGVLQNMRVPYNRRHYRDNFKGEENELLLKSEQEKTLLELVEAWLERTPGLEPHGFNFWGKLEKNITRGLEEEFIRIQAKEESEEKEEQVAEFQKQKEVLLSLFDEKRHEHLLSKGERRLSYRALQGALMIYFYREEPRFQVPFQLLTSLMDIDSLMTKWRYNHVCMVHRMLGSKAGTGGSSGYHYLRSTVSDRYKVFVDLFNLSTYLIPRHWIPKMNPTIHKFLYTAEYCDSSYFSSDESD

| IC50 [1] | IC50 [2] | IC50 (IDO1 in HeLa cells) | Structure (SMILES) |
| --- | --- | --- | --- |
| 500 to 2000 nM | < 200 nM | < 200 nM | Nc1oc2c(/C=C/c3ccccc3)nccc2c1Nc1ccc(F)c(Cl)c1 [Compound 280, N^3-(3-Chloro-4-fluorophenyl)-7-styrylfuro[2,3-c]pyridine-2,3-diamine] |
| 500 to 2000 nM | < 200 nM | < 200 nM | Nc1oc2c(-c3cc(F)ccc3Cl)nccc2c1Nc1ccc(F)c(Cl)c1 [Compound 276, N^3-(3-Chloro-4-fluorophenyl)-7-(2-chloro-5-fluorophenyl)furo[2,3-c]pyridine-2,3-diamine] |
| > 2000 nM | < 200 nM | < 200 nM | Nc1sc2ccccc2c1Nc1ccc2c(c1)OCO2 [Compound 236, N^3-(benzo[d][1,3]dioxol-5-yl)benzo[b]thiophene-2,3-diamine] |
| 500 to 2000 nM | < 200 nM | < 200 nM | Nc1oc2c(-c3ccc4c(c3)OCO4)nccc2c1Nc1ccc(F)c(Cl)c1 [Compound 261, 7-(Benzo[d][1,3]dioxol-5-yl)-N^3-(3-chloro-4-fluorophenyl)furo[2,3-c]pyridine-2,3-diamine] |
| – | < 200 nM | < 200 nM | COc1ccc(-c2nccc3c(Nc4ccc(F)c(Cl)c4)c(N)oc23)cc1 [Compound 101, N^3-(3-Chloro-4-fluorophenyl)-7-(4-methoxyphenyl)furo[2,3-c]pyridine-2,3-diamine] |
| – | < 200 nM | < 200 nM | Cc1cccc(Nc2c(N)oc3cnccc23)c1 [Compound 48, N^3-(m-tolyl)Furo[2,3-c]pyridine-2,3-diamine] |
| – | < 200 nM | < 200 nM | N#Cc1ccc2c(Nc3ccc(F)c(Cl)c3)c(N)oc2c1 [Compound 112, 2-Amino-3-((3-chloro-4-fluorophenyl)amino)benzofuran-6-carbonitrile] |
| – | < 200 nM | < 200 nM | Nc1oc2c(-c3ccc(Cl)cc3)nccc2c1Nc1ccc(F)c(Cl)c1 [Compound 91, N^3-(3-Chloro-4-fluorophenyl)-7-(4-chlorophenyl)furo[2,3-c]pyridine-2,3-diamine] |
| – | < 200 nM | < 200 nM | Nc1oc2c(-c3ccc(F)c(F)c3)nccc2c1Nc1ccc(F)c(Cl)c1 [Compound 170, N^3-(3-chloro-4-fluorophenyl)-7-(3,4-difluorophenyl)furo[2,3-c]pyridine-2,3-diamine] |
| – | < 200 nM | < 200 nM | N#Cc1ccc(-c2cccc3c(Nc4ccc(F)c(Cl)c4)c(N)sc23)cc1 [Compound 212, 4-(2-Amino-3-((3-chloro-4-fluorophenyl)amino)benzo[b]thiophen-7-yl)benzonitrile] |
| – | < 200 nM | < 200 nM | Nc1oc2c(Cc3ccccc3)nccc2c1Nc1ccc(F)c(Cl)c1 [Compound 86, 7-Benzyl-N^3-(3-chloro-4-fluorophenyl)furo[2,3-c]pyridine-2,3-diamine] |
| – | < 200 nM | < 200 nM | C#Cc1cccc(Nc2c(N)oc3c(-c4ccccc4)nccc23)c1 [Compound 92, N^3-(3-Ethynylphenyl)-7-phenylfuro[2,3-c]pyridine-2,3-diamine] |
| – | < 200 nM | < 200 nM | COCCNC(=O)c1ccc(-c2nccc3c(Nc4ccc(F)c(Cl)c4)c(N)oc23)cc1 [Compound 169, 4-(2-Amino-3-((3-chloro-4-fluorophenyl)amino)furo[2,3-c]pyridin-7-yl)-N-(2-methoxyethyl)benzamide] |

| Structure (SMILES) | IC50 [1] | IC50 [2] | IC50 (IDO1 in HeLa cells) |
| --- | --- | --- | --- |
| Nc1oc2cnccc2c1Nc1cccc(F)c1 [Compound 46, N^3-(3-Fluorophenyl)furo[2,3-c]pyridine-2,3-diamine] | 500 to 2000 nM | 200 to 1000 nM | < 200 nM |
| Nc1oc2cnccc2c1Nc1cc(F)c(F)c(Br)c1 [Compound 22, N^3-(3-Bromo-4,5-difluorophenyl)furo[2,3-c]pyridine-2,3-diamine] | > 2000 nM | > 1000 nM | 200 to 1000 nM |
| Cc1ccc(Nc2c(N)oc3cnccc23)cc1 [Compound 40, N^3-(p-tolyl)Furo[2,3-c]pyridine-2,3-diamine] | 500 to 2000 nM | > 1000 nM | < 200 nM |
